Reference: US20240124418A1 (BioTheryX, Inc., priority 2020, published 2024)

Tested on: TNF-α
Assay: Cell-based TNF-α inhibition assay (LPS-induced PBMCs, Meso Scale)
Conditions: PBMC, PBMCs pretreated 1 h, LPS 100 ng/mL 18-24 h, percentage of stimulated DMSO control; for inhibition at 0.1 µM: compound concentration 0.1 μM; for inhibition at 1 µM: compound concentration 1 μM
Method: Example B1. Cell-Based TNF-α Inhibition Assay
Frozen primary blood mononuclear cells (PBMCs) were quick thawed, washed once with RPMI 1640 media supplemented with 10% fetal bovine serum, 1% penicillin, and 1% streptomycin, and plated in a 96 well plate at 200,000 cells per well. The cells were pretreated with DMSO only as a control or a compound for 1 h, and then induced with LPS (lipopolysaccharide) (100 ng/mL) for 18-24 h. The supernatant was analyzed for TNF-α using the Meso Scale assay. Compound activity was determined as a percentage of the stimulated DMSO control. The results are summarized in Table 1, where A represents a percent inhibition value ≥60%; B represents a percent inhibition value <60% and ≥40%; C represents a percent inhibition value <40% and ≥20%; and D represents a single percent inhibition value <20%.

Row | SMILES | inhibition at 0.1 µM | inhibition at 1 µM
1 | CCOc1cc([C@@H](CS(C)(=O)=O)N2C(=O)c3c(CCCCCCCCCCCCN4CCC(c5cc(F)cc6c5CN(C5CCC(=O)NC5=O)C6=O)CC4)ccc(NC(C)=O)c3C2=O)ccc1OC (stereo partly drawn) [Compound A17, N-[7-(12-{4-[2-(2,6-Dioxopiperidin-3-yl)-6-fluoro-1-oxo-2,3-dihydro-1H-isoindol-4-yl]piperidin-1-yl}dodecyl)-2-[(1S)-1-(3-ethoxy-4-methoxyphenyl)-2-methanesulfonylethyl]-1,3-dioxo-2,3-dihydro-1H-isoindol-4-yl]acetamide] | ≥ 60% | ≥ 60%
2 | CCOc1cc([C@@H](CS(C)(=O)=O)N2C(=O)c3cccc(NC(=O)CCCCCCCCCN4CCN(CC(=O)Nc5ccc(C6CCC(=O)NC6=O)cc5)CC4)c3C2=O)ccc1OC (stereo partly drawn) [Compound A86, 10-[4-({[4-(2,6-Dioxopiperidin-3-yl)phenyl]carbamoyl}methyl)piperazin-1-yl]-N-{2-[(1S)-1-(3-ethoxy-4-methoxyphenyl)-2-methanesulfonylethyl]-1,3-dioxo-2,3-dihydro-1H-isoindol-4-yl}decanamide] | ≥ 60% | ≥ 60%
3 | CCOc1cc([C@@H](CS(C)(=O)=O)N2C(=O)c3cccc(NCC(=O)N4CCN(CCCCC(=O)N[C@H](C(=O)N5C[C@H](O)C[C@H]5C(=O)NCc5ccc(-c6scnc6C)cc5)C(C)(C)C)CC4)c3C2=O)ccc1OC [Compound A66, (2S,4R)-1-[(2S)-2-(5-{4-[2-({2-[(1S)-1-(3-Ethoxy-4-methoxyphenyl)-2-methanesulfonylethyl]-1,3-dioxo-2,3-dihydro-1H-isoindol-4-yl}amino)acetyl]piperazin-1-yl}pentan-amido)-3,3-dimethylbutanoyl]-4-hydroxy-N-{[4-(4-methyl-1,3-thiazol-5-yl)phenyl]methyl}-pyrrolidine-2-carboxamide] | 40 to 60% | ≥ 60%
4 | CCOc1cc([C@@H](CS(C)(=O)=O)N2C(=O)c3cccc(NC(=O)CCCCN4CCN(CC(=O)N[C@H](C(=O)N5C[C@H](O)C[C@H]5C(=O)NCc5ccc(-c6scnc6C)cc5)C(C)(C)C)CC4)c3C2=O)ccc1OC [Compound A63, (2S,4R)-1-[(2S)-2-(2-{4-[4-({2-[(1S)-1-(3-Ethoxy-4-methoxyphenyl)-2-methanesulfonylethyl]-1,3-dioxo-2,3-dihydro-1H-isoindol-4-yl}carbamoyl)butyl]piperazin-1-yl}acet-amido)-3,3-dimethylbutanoyl]-4-hydroxy-N-{[4-(4-methyl-1,3-thiazol-5-yl)phenyl]methyl}-pyrrolidine-2-carboxamide] | ≥ 60% | ≥ 60%
5 | CCOc1cc([C@@H](CS(C)(=O)=O)N2C(=O)c3cccc(NC(=O)CCCCCCCN4CCN(CC(=O)Nc5cccc(C6CCC(=O)NC6=O)c5)CC4)c3C2=O)ccc1OC (stereo partly drawn) [Compound A85, 8-[4-({[3-(2,6-Dioxopiperidin-3-yl)phenyl]carbamoyl}methyl)piperazin-1-yl]-N-{2-[(1S)-1-(3-ethoxy-4-methoxyphenyl)-2-methanesulfonylethyl]-1,3-dioxo-2,3-dihydro-1H-isoindol-4-yl}octanamide] | ≥ 60% | ≥ 60%
6 | CCOc1cc([C@@H](CS(C)(=O)=O)N2C(=O)c3cccc(NC(=O)CCCCCCCCn4cc(-c5cc6c(cc5F)C(=O)N(C5CCC(=O)NC5=O)C6)nn4)c3C2=O)ccc1OC (stereo partly drawn) [Compound A23, 9-{4-[2-(2,6-Dioxopiperidin-3-yl)-6-fluoro-1-oxo-2,3-dihydro-1H-isoindol-5-yl]-1H-1,2,3-triazol-1-yl}-N-{2-[(1S)-1-(3-ethoxy-4-methoxyphenyl)-2-methanesulfonylethyl]-1,3-dioxo-2,3-dihydro-1H-isoindol-4-yl}nonanamide] | ≥ 60% | ≥ 60%
7 | O=C1CCC(N2Cc3c(cc(F)cc3C3CCN(CCCCCCCCCOc4ccc(C(=O)Nc5c(Cl)cncc5Cl)cc4OCC4CC4)CC3)C2=O)C(=O)N1 (centres unmarked) [Compound B12, 3-(Cyclopropylmethoxy)-N-(3,5-dichloropyridin-4-yl)-4-((9-(4-(2-(2,6-dioxopiperidin-3-yl)-6-fluoro-1-oxoisoindolin-4-yl)piperidin-1-yl)nonyl)oxy)benzamide] | 20 to 40% | –
8 | CCOc1cc([C@@H](CS(C)(=O)=O)N2C(=O)c3cc(C#CCCCCCN4CCC(c5cc(F)cc6c5CN(C5CCC(=O)NC5=O)C6=O)CC4)cc(NC(C)=O)c3C2=O)ccc1OC (stereo partly drawn) [Compound A2, N-(6-(7-(4-(2-(2,6-Dioxopiperidin-3-yl)-6-fluoro-1-oxoisoindolin-4-yl)-piperidin-1-yl)hept-1-yn-1-yl)-2-((S)-1-(3-ethoxy-4-methoxyphenyl)-2-(methylsulfonyl)ethyl)-1,3-dioxoisoindolin-4-yl)acetamide] | ≥ 60% | –
9 | CCOc1cc([C@@H](CS(C)(=O)=O)N2C(=O)c3cccc(NC(=O)CCCCCCCCN4CCC(c5ccc6c(c5)CN(C5CCC(=O)NC5=O)C6=O)CC4)c3C2=O)ccc1OC (stereo partly drawn) [Compound A26, 9-{4-[2-(2,6-Dioxopiperidin-3-yl)-1-oxo-2,3-dihydro-1H-isoindol-5-yl]piperidin-1-yl}-N-{2-[(1S)-1-(3-ethoxy-4-methoxyphenyl)-2-methanesulfonylethyl]-1,3-dioxo-2,3-dihydro-1H-isoindol-4-yl}nonanamide] | ≥ 60% | ≥ 60%
10 | CCOc1cc([C@@H](CS(C)(=O)=O)N2C(=O)c3cccc(NCCc4ccc(CCCCNCc5ccc(OCc6scc7c6CN(C6CCC(=O)NC6=O)C7=O)cc5)cc4)c3C2=O)ccc1OC (stereo partly drawn) [Compound A51, 4-({2-[4-(4-{[(4-{[5-(2,6-Dioxopiperidin-3-yl)-4-oxo-4H,5H,6H-thieno[3,4-c]-pyrrol-1-yl]methoxy}phenyl)methyl]amino}butyl)phenyl]ethyl}amino)-2-[(1S)-1-(3-ethoxy-4-methoxyphenyl)-2-methanesulfonylethyl]-2,3-dihydro-1H-isoindole-1,3-dione] | ≥ 60% | ≥ 60%
11 | CCOc1cc([C@@H](CS(C)(=O)=O)N2C(=O)c3cccc(NC(=O)CCCCCCCCCN[C@H](C(=O)N4C[C@H](O)C[C@H]4C(=O)NCc4ccc(-c5scnc5C)cc4)C(C)(C)C)c3C2=O)ccc1OC [Compound A65, (2S,4R)-1-[(2S)-2-{[9-({2-[(1S)-1-(3-Ethoxy-4-methoxyphenyl)-2-methanesulfonylethyl]-1,3-dioxo-2,3-dihydro-1H-isoindol-4-yl}carbamoyl)nonyl]amino}-3,3-dimethylbutanoyl]-4-hydroxy-N-{[4-(4-methyl-1,3-thiazol-5-yl)phenyl]methyl}pyrrolidine-2-carboxamide] | ≥ 60% | ≥ 60%
12 | CC(=O)NC(=O)C(C)N1Cc2c(cc(F)cc2C2CCN(CCCCCCCCCOc3cc(C(=O)Nc4c(Cl)cncc4Cl)ccc3OC(F)F)CC2)C1=O (centres unmarked) [Compound B13, 3-((9-(4-(2-(1-Acetamido-1-oxopropan-2-yl)-6-fluoro-1-oxoisoindolin-4-yl)piperidin-1-yl)nonyl)oxy)-N-(3,5-dichloropyridin-4-yl)-4-(difluoromethoxy)benzamide] | ≥ 60% | ≥ 60%
13 | CCOc1cc([C@@H](CS(C)(=O)=O)N2C(=O)c3cccc(CCCCCCCCCCNCc4ccc(OCc5scc6c5CN(C5CCC(=O)NC5=O)C6=O)cc4)c3C2=O)ccc1OC (stereo partly drawn) [Compound A49, 4-(10-{[(4-{[5-(2,6-Dioxopiperidin-3-yl)-4-oxo-4H,5H,6H-thieno[3,4-c]pyrrol-1-yl]methoxy}phenyl)methyl]amino}decyl)-2-[(1S)-1-(3-ethoxy-4-methoxyphenyl)-2-methanesulfonylethyl]-2,3-dihydro-1H-isoindole-1,3-dione] | ≥ 60% | ≥ 60%
14 | CCOc1cc([C@@H](CS(C)(=O)=O)N2C(=O)c3cccc(NC(=O)CCCCCCCCCCC(=O)N[C@H](C(=O)N4C[C@H](O)C[C@H]4C(=O)NCc4ccc(-c5scnc5C)cc4)C(C)(C)C)c3C2=O)ccc1OC [Compound A64, N-{2-[(1S)-1-(3-Ethoxy-4-methoxyphenyl)-2-methanesulfonylethyl]-1,3-dioxo-2,3-dihydro-1H-isoindol-4-yl}-N′-[(2S)-1-[(2S,4R)-4-hydroxy-2-({[4-(4-methyl-1,3-thiazol-5-yl)phenyl]methyl}carbamoyl)pyrrolidin-1-yl]-3,3-dimethyl-1-oxobutan-2-yl]dodecanediamide] | ≥ 60% | ≥ 60%
15 | O=C1CCC(N2Cc3c(cc(F)cc3C3CCN(CCCCCOc4cc(C(=O)Nc5c(Cl)cncc5Cl)ccc4OC(F)F)CC3)C2=O)C(=O)N1 (centres unmarked) [Compound B5, N-(3,5-Dichloropyridin-4-yl)-4-(difluoromethoxy)-3-((5-(4-(2-(2,6-dioxo-piperidin-3-yl)-6-fluoro-1-oxoisoindolin-4-yl)piperidin-1-yl)pentyl)oxy)benzamide] | ≥ 60% | –
16 | CCOc1cc([C@@H](CS(C)(=O)=O)N2C(=O)c3cccc(NC(=O)CCCc4cn(CCN5CCC(c6cc7c(cc6F)C(=O)N(C6CCC(=O)NC6=O)C7)CC5)nn4)c3C2=O)ccc1OC (stereo partly drawn) [Compound A24, 4-[1-(2-{4-[2-(2,6-Dioxopiperidin-3-yl)-6-fluoro-1-oxo-2,3-dihydro-1H-isoindol-5-yl]piperidin-1-yl}ethyl)-1H-1,2,3-triazol-4-yl]-N-{2-[(1S)-1-(3-ethoxy-4-methoxyphenyl)-2-methanesulfonylethyl]-1,3-dioxo-2,3-dihydro-1H-isoindol-4-yl}butanamide] | ≥ 60% | ≥ 60%
